From patent publication US8431588B2, “Cyclopropyl polymerase inhibitors” (Janssen Products, LP, priority 2008, dated 2013)
Where two headings read alike, the source gives them in different places.

Tests used:
[1] = Cellular toxicity in the Huh7-CMV-Luc replicon assay; format: cell-based; conditions: human; Huh7-CMV-Luc cells, three days incubation, Luc activity
Procedure: Cellular toxicity was determined in the Huh7-CMV-Luc replicon assay. Replicon cells (2500 cells/well), stably transformed with a luciferase reporter gene under control of the cytomegalovirus (CMV) constitutive promotor, were cultured in the presence or absence of test compound concentrations. After three days of incubation at 37° C. in a humidified 5% CO2 atmosphere, cell proliferation was quantified by measuring the Luc activity, and expressed as CC50 values (cytotoxicity, 50% inhibitory concentration of cell growth). Tests were performed in 384-well plates.

[2] = tested on: HCV type 1b replicon in Huh-7 luc/neo (Huh-Luc) cells; experiment: HCV replicon assay (Huh-Luc, luciferase readout); format: cell-based; conditions: Hepatitis C virus, Huh-7, 72 h, read-out: EC50 (replicon)
From the text: The compounds of formula I were examined for activity in the inhibition of HCV RNA replication in a cellular assay aimed at identifying compounds that inhibit a HCV functional cellular replicating cell line, also known as HCV replicons. The cellular assay was based on a bicistronic expression construct, as described by Lohmann et al. (1999), Science vol. 285 pp. 110-113 with modifications described by Krieger et al. (2001), Journal of Virology 75: 4614-4624, in a multi-target screening strategy.
The assay utilized the stably transfected cell line Huh-7 luc/neo (hereafter referred to as Huh-Luc). This cell line harbors an RNA encoding a bicistronic expression construct comprising the wild type NS3-NS5B regions of HCV type 1b translated from an Internal Ribosome Entry Site (IRES) from encephalomyocarditis virus (EMCV), preceded by a reporter portion (FfL-luciferase), and a selectable marker portion (neo^R, neomycine phosphotransferase). The construct is bordered by 5′ and 3′ NTRs (non-translated regions) from HCV type 1b. Continued culture of the replicon cells in the presence of G418 (neo^R) is dependent on the replication of the HCV RNA. The stably transfected replicon cells that express HCV RNA, which replicates autonomously and to high levels, encoding inter alia luciferase, were used for screening the antiviral compounds.
The replicon cells were plated in 384 well plates in the presence of the test and control compounds which were added in various concentrations. Following an incubation of three days, HCV replication was measured by assaying luciferase activity (using standard luciferase assay substrates and reagents and a Perkin Elmer ViewLux™ ultraHTS microplate imager). Replicon cells in the control cultures have high luciferase expression in the absence of any inhibitor. The inhibitory activity of the compound on luciferase activity was monitored on the Huh-Luc cells, enabling a dose-response curve for each test compound. EC50 values were then calculated, which value represents the amount of the compound required to decrease the level of detected luciferase activity by 50%, or more specifically, the ability of the genetically linked HCV replicon RNA to replicate.

[3] = tested on: wild type human immunodeficiency virus (HIV) strain IIIB; experiment: microbe, parasite or virus in culture; format: cell-based, HIV-1; conditions: read-out: EC50 (IIIB)
Procedure: Compounds of the invention were tested for their potency against wild type human immunodeficiency virus (HIV). Antiviral activity was evaluated using a cellular assay performed according to the following procedure. The human T-cell line MT4 was engineered with Green Fluorescent Protein (GFP) and a HIV-specific promoter, HIV-1 long terminal repeat (LTR). This cell line, designated MT4 LTR-EGFP, can be used for the in vitro evaluation of anti-HIV activity of investigational compounds. In HIV-1 infected cells, the Tat protein is produced, which upregulates the LTR promotor and eventually leads to stimulation of the GFP reporter production, allowing to measure ongoing HIV-infection fluorometrically. Effective concentration values such as 50% effective concentration (EC50) can be determined and are usually expressed in μM. An EC50 value is defined as the concentration of test compound that reduces the fluorescence of HIV-infected cells by 50%. Monitoring of HIV-1 infection was done using a scanning microscope. Image analysis allows very sensitive detection of viral infection. Measurements were done before cell necrosis, which usually takes place about five days after infection, in particular measurements were performed three days after infection. The column IIIB in the table list the EC50 values against the wild type strain IIIB.

[4] = Huh-Luc replicon cells, three days incubation, luciferase activity
[5] = Human immunodeficiency virus 1, 72 h, wild type strain IIIB, MT4 LTR-EGFP cells, three days after infection

Row | SMILES | CC50 at 3 days [1] | EC50 [2, 4] | EC50 [3, 5] | EC50 ([3]; Human immunodeficiency virus 1, IIIB, 72 h) | EC50 [2]
1 | COC(=O)[C@H](C)NP(=O)(OC[C@H]1O[C@@H](n2ccc(N)nc2=O)C2(CC2)[C@@H]1O)Oc1ccccc1 (stereo partly drawn) [Compound 2d, (2S)-methyl 2-((((4R,6R,7S)-4-(4-amino-2-oxopyrimidin-1(2H)-yl)-7-hydroxy-5-oxaspiro[2.4]heptan-6-yl)methoxy)(phenoxy)phosphorylamino)propanoate] | > 98 µM | 63.1 µM | > 98 µM |  | 
2 | Nc1ccn([C@@H]2O[C@H](CO)[C@@H](O)C23CC3)c(=O)n1 [Compound 1, 4-Amino-1-(7-hydroxy-6-hydroxymethyl-5-oxa-spiro[2.4]hept-4-yl)-1H-pyrimidin-2-one] | > 98 µM | 8.4 µM | > 98 µM |  | 
3 | C[C@H](NP(=O)(OC[C@H]1O[C@@H](n2ccc(N)nc2=O)C2(CC2)[C@@H]1O)Oc1ccccc1)C(=O)OCc1ccccc1 (stereo partly drawn) [Compound 2a, (2S)-benzyl 2-((((4R,6R,7S)-4-(4-amino-2-oxopyrimidin-1(2H)-yl)-7-hydroxy-5-oxaspiro[2.4]heptan-6-yl)methoxy)((phenoxy)phosphoryl)amino)propanoate] | > 98 µM | 15.3 µM | > 98 µM |  | 
4 | CC(C)C(=O)OC[C@H]1O[C@@H](n2ccc(N)nc2=O)C2(CC2)[C@@H]1O [Compound 4, ((4R,6R,7S)-4-(4-amino-2-oxopyrimidin-1(2H)-yl)-7-hydroxy-5-oxaspiro[2.4]heptan-6-yl)methyl isobutyrate] | > 98 µM | 9.2 µM |  | > 98 µM | 
5 | C[C@H](NP(=O)(OC[C@H]1O[C@@H](n2ccc(N)nc2=O)C2(CC2)[C@@H]1O)Oc1ccc(Cl)cc1)C(=O)OCc1ccccc1 (stereo partly drawn) [Compound 2b, (2S)-benzyl 2-((((4R,6R,7S)-4-(4-amino-2-oxopyrimidin-1(2H)-yl)-7-hydroxy-5-oxaspiro[2.4]heptan-6-yl)methoxy)(4-chlorophenoxy)phosphorylamino)propanoate] | > 98 µM | 26.3 µM | > 98 µM |  | 
6 | CC(C)C(=O)O[C@@H]1[C@@H](CO)O[C@@H](n2ccc(N)nc2=O)C12CC2 [Compound 5, (4R,6R,7S)-4-(4-amino-2-oxopyrimidin-1(2H)-yl)-6-(hydroxymethyl)-5-oxaspiro[2.4]heptan-7-yl isobutyrate] | > 98 µM | 42.5 µM | > 98 µM |  | 
7 | CC(C)C(=O)OC[C@H]1O[C@@H](n2ccc(N)nc2=O)C2(CC2)[C@@H]1OC(=O)C(C)C [Compound 3, (4R,6R,7S)-4-(4-amino-2-oxopyrimidin-1(2H)-yl)-6-(isobutyryl-oxymethyl)-5-oxaspiro[2.4]heptan-7-yl isobutyrate] | > 98 µM | 27.2 µM | > 98 µM |  | 
8 | CCOC(=O)[C@H](Cc1ccccc1)NP(=O)(OC[C@H]1O[C@@H](n2ccc(N)nc2=O)C2(CC2)[C@@H]1O)Oc1ccccc1 (stereo partly drawn) [Compound 2c, (2S)-ethyl 2-((((4R,6R,7S)-4-(4-amino-2-oxopyrimidin-1(2H)-yl)-7-hydroxy-5-oxaspiro[2.4]heptan-6-yl)methoxy)(phenoxy)phosphorylamino)-3-phenylpropanoate] | > 98 µM |  | > 98 µM |  | ≥ 98 µM
